Laboratory results published in patent US20070012632A1, “Synergistic composition and method for inhibiting growth of microorganisms” (priority 2005, published 2007).

Key:
Format in all cases: cell-based
[1] = test system: total bacteria in paper mill white water; experiment: Total bacterial counts in white water, mill using mechanical pulp (Example 1); conditions: 50 minutes contact time; for Total bacterial counts: white water
Protocol: The furnish used in this mill is composed of about 50% TMP, 25% bleached Kraft pulp, and 25% broke. White water was collected and total bacterial counts were determined in samples with and without the addition of DMH stabilized chlorine (1:1 molar ratio of DMH to “Cl2) and/or PAA, after 50 minutes of contact time.

[2] = test system: total bacteria in paper mill white water; experiment: Total bacterial counts in white water, mill using chemical pulp (Example 2); conditions: 30 minutes contact time; for Total bacterial counts: white water
Protocol: The furnish used on this paper machine is composed of about 60% bleached Kraft pulp, and 40% broke. White water was collected and total bacterial counts were determined in samples with and without the addition of DMH stabilized chlorine (1:1 molar ratio of DMH to “Cl2”), and/or PAA, after 30 minutes of contact time.

[3] = test system: total bacteria in paper mill white water; experiment: Total bacterial counts in white water, very closed mill using chemical pulp (Example 3); parameters: Total bacterial counts: unit not given here; conditions: 30 minutes contact time; for Total bacterial counts: white water
Protocol: The furnish used in this mill is composed of about 75% bleached Kraft pulp, and 25% broke. White water was collected and total bacterial counts were determined in samples with and without the addition of DMH stabilized chlorine (1:1 molar ratio of DMH to “Cl2”), and/or PAA, after 30 minutes of contact time.

## CC(=O)OO [PAA, peracetic acid]
[1]; PAA 25 ppm product
  Total bacterial counts: 4 × 10^6
[1]; PAA 50 ppm product
  Total bacterial counts: 3 × 10^5
[1]; PAA 100 ppm product
  Total bacterial counts: 3 × 10^3
[1]; biocide alone
  Concentration alone achieving >3-log reduction in bacterial counts: 100 ppm
[2]; PAA 2.5 ppm product
  Total bacterial counts: 5.8 × 10^6
[2]; PAA 5 ppm product
  Total bacterial counts: 1.1 × 10^6
[2]; PAA 10 ppm product
  Total bacterial counts: 5 × 10^4
[2]; biocide alone
  Concentration alone achieving >3-log reduction in bacterial counts: > 10 ppm
[3]; PAA 50 ppm product
  Total bacterial counts: 4.5 × 10^6
[3]; PAA 75 ppm product
  Total bacterial counts: 1.6 × 10^6
[3]; PAA 100 ppm product
  Total bacterial counts: 3 × 10^5
[3]; PAA 150 ppm product
  Total bacterial counts: 10^3
[3]; PAA 200 ppm product
  Total bacterial counts: <10^2
[3]; biocide alone
  Concentration alone achieving 2-log reduction in bacterial counts: 150 ppm
